Test [1] deals with non replicating phase of M. tuberculosis (H37Rv with a plasmid with an acetimidase promoter driving a luciferase gene). Put plainly: microbe, parasite or virus in culture. Type of test: cell-based. The note with it: non replicating M. tuberculosis H37Rv luciferase strain; for MIC: Mycobacterium tuberculosis, read-out: LORA (TB growth inhibition, MIC).
In test [2] the test system is H37Rv strain of M. tuberculosis. The test is described as follows: Alamar Blue Susceptibility Test (MABA). The format is cell-based. As to conditions: H37Rv strain of M. tuberculosis, Alamar Blue; for MIC: Mycobacterium tuberculosis, read-out: MABA (TB growth inhibition, colourimetric assay). (Resazurin is reduced to fluorescent resorufin, in cell work by metabolically active cells.)

In brackets after ≈: the same amount, converted by molar mass. Where a name gives a salt, the structure may show the parent alone.

As to `Clc1ccc(CNc2nc(NCc3ccccc3)c3ccccc3n2)cc1` [Compound 127, N^4-Benzyl-N^2-(4-chlorobenzyl)quinazoline-2,4-diamine hydrochloride], the MIC in test [1] and in test [2] was less than 10 µM each time.

Consider `Clc1ccccc1CNc1nc(N2CCCCC2)nc2ccccc12` [Compound 40, N-(2-Chlorobenzyl)-2-(piperidin-1-yl)quinazolin-4-amine], for which the MIC in test [1] was 10 to 50 µM (≈ 3.53 to 17.6 µg/mL); in test [2], less than 10 µM.

For `Clc1cccc(CNc2nc(N3CCCCC3)nc3ccccc23)c1` [Compound 41, N-(3-Chlorobenzyl)-2-(piperidin-1-yl)quinazolin-4-amine], the MIC in test [1] was 10 to 50 µM (≈ 3.53 to 17.6 µg/mL); in test [2], less than 10 µM.

Consider `c1ccc(CNc2nc(N3CCc4ccccc4C3)nc3ccccc23)cc1` [Compound 30, N-Benzyl-2-(3,4-dihydroisoquinolin-2(1H)-yl)quinazolin-4-amine], for which the MIC in test [1] and in test [2] was less than 10 µM in each case.

For the molecule `Clc1ccc(CCNc2nc(N3CCCCC3)nc3ccccc23)cc1` [Compound 83, N-(4-Chlorophenethyl)-2-(piperidin-1-yl)quinazolin-4-amine hydrochloride], the MIC in test [1] and in test [2] was less than 10 µM throughout.

With `COc1cc2nc(N3CCOCC3)nc(NCc3ccccc3)c2cc1OC` [Compound 17, N-Benzyl-6,7-dimethoxy-2-morpholinoquinazolin-4-amine], in test [1], the “LORA (TB growth inhibition, MIC)” value is listed as “−”. Also, the MIC in test [2] lay in the range of 50 to 128 µM (≈ 19 to 48.7 µg/mL).

For `c1ccc2c(c1)CCN(c1nc(N3CCCCC3)nc3ccccc13)C2` [Compound 36, 4-(3,4-Dihydroisoquinolin-2(1H)-yl)-2-(piperidin-1-yl)quinazoline], the MIC in test [1] was 10 to 50 µM (≈ 3.44 to 17.2 µg/mL); in test [2], less than 10 µM.

Consider `CC(C)(Nc1nc(N2CCCCC2)nc2ccccc12)c1ccc(F)cc1` [Compound 120, N-(2-(4-Fluorophenyl)propan-2-yl)-2-(piperidin-1-yl)quinazolin-4-amine], for which the MIC in test [1] is 10 to 50 µM (≈ 3.64 to 18.2 µg/mL); in test [2], less than 10 µM.

Turning to `c1ccc2c(NCC3CCCCC3)nc(N3CCCCC3)nc2c1` [Compound 45, N-(Cyclohexylmethyl)-2-(piperidin-1-yl)quinazolin-4-amine], the MIC is 10 to 50 µM (≈ 3.24 to 16.2 µg/mL) in test [1] and less than 10 µM in test [2].

As for `CC(Nc1nc(N2CCN(S(C)(=O)=O)CC2)nc2ccccc12)c1ccccc1` (stereo not shown) [Compound 10, 2-(4-(Methylsulfonyl)piperazin-1-yl)-N-(1-phenylethyl)quinazolin-4-amine], the MIC lay in the range of 10 to 50 µM (≈ 4.12 to 20.6 µg/mL) in test [1] and 50 to 128 µM (≈ 20.6 to 52.7 µg/mL) in test [2].

As to `c1ccc(CNc2nc(NCc3ccccc3)c3ccccc3n2)cc1` [Compound 18, N^2,N^4-Dibenzylquinazoline-2,4-diamine], the MIC in test [1] and in test [2] was 10 to 50 µM (≈ 3.4 to 17 µg/mL) throughout.

Consider `Clc1ccc(CNc2nc(N3CCCCC3)nc3ccccc23)cc1Cl` [Compound 68, N-(3,4-Dichlorobenzyl)-2-(piperidin-1-yl)quinazolin-4-amine], for which the MIC in test [1] and in test [2] was less than 10 µM in each case.

With `c1ccc(CNc2nc(N3CCCCC3)nc3ccccc23)cc1` [Compound 4, N-Benzyl-2-(piperidin-1-yl)quinazolin-4-amine], the MIC is 10 to 50 µM (≈ 3.18 to 15.9 µg/mL) in test [1] and less than 10 µM in test [2].

Turning to `Clc1ccc(N2CCN(c3nc(NCc4ccccc4)c4ccccc4n3)CC2)cc1` [Compound 134, N-Benzyl-2-(4-(4-chlorophenyl)piperazin-1-yl)quinazolin-4-amine hydrochloride], the MIC in test [1] is 10 to 50 µM; in test [2], less than 10 µM.

Regarding `c1ccc(CNc2nc(N3CCCC3)nc3ccccc23)cc1` [Compound 22, N-Benzyl-2-(pyrrolidin-1-yl)quinazolin-4-amine], the MIC in test [1] is 10 to 50 µM (≈ 3.04 to 15.2 µg/mL); in test [2], less than 10 µM.

In the case of `Clc1ccc(CNc2nc(N3CCc4ccccc4C3)nc3ccccc23)cc1` [Compound 106, N-(4-Chlorobenzyl)-2-(3,4-dihydroisoquinolin-2(1H)-yl)quinazolin-4-amine hydrochloride], the MIC in test [1] and in test [2] was less than 10 µM each time.

Regarding `CC(Nc1nc(N2CCCCC2)nc2ccccc12)c1ccccc1` (stereo not shown) [Compound 12, N-(1-Phenylethyl)-2-(piperidin-1-yl)quinazolin-4-amine], the MIC in test [1] and in test [2] was 10 to 50 µM (≈ 3.32 to 16.6 µg/mL) in each case.

`N#Cc1ccc(CNc2nc(N3CCCCC3)nc3ccccc23)cc1` [Compound 92, 4-((2-(Piperidin-1-yl)quinazolin-4-ylamino)methyl)benzonitrile]: the values for the MIC in test [1] and in test [2] were 50 to 128 µM (≈ 17.2 to 44 µg/mL) and less than 10 µM, respectively.

Regarding `CC(Nc1nc(N2CCN(C(=O)C3CCCC3)CC2)nc2ccccc12)c1ccccc1` (stereo not shown) [Compound 21, Cyclopentyl(4-(4-(1-phenylethylamino)quinazolin-2-yl)piperazin-1-yl)methanone], the MIC in test [1] and in test [2] was 10 to 50 µM (≈ 4.3 to 21.5 µg/mL) throughout.

Consider `CN(Cc1ccccc1)c1nc(N2CCCCC2)nc2ccccc12` [Compound 35, N-Benzyl-N-methyl-2-(piperidin-1-yl)quinazolin-4-amine], for which the MIC in test [1] and in test [2] was less than 10 µM in each case.

As for `c1ccc(CNc2nc(N3CCCCC3)c3ccccc3n2)cc1` [Compound 24, N-Benzyl-4-(piperidin-1-yl)quinazolin-2-amine], the MIC in test [1] and in test [2] was 10 to 50 µM (≈ 3.18 to 15.9 µg/mL) in each case.

For `COC(=O)c1ccc(CNc2nc(N3CCCCC3)nc3ccccc23)cc1` [Compound 93, Methyl 4-((2-(piperidin-1-yl)quinazolin-4-ylamino)methyl)benzoate], the MIC in test [1] was 50 to 128 µM (≈ 18.8 to 48.2 µg/mL); in test [2], less than 10 µM.

On to `FC(F)(F)c1ccc(CNc2nc(N3CCCCC3)nc3ccccc23)cc1` [Compound 38, 2-(Piperidin-1-yl)-N-(4-(trifluoromethyl)benzyl)quinazolin-4-amine], for which the MIC in test [1] and in test [2] was less than 10 µM in each case.

Take `CCC(CC)(Nc1nc(N2CCCC2)nc2ccccc12)c1ccccc1` [Compound 124, N-(3-Phenylpentan-3-yl)-2-(pyrrolidin-1-yl)quinazolin-4-amine]: the MIC in test [1] was 10 to 50 µM (≈ 3.61 to 18 µg/mL); in test [2], less than 10 µM.

Consider `c1ccc(CCNc2nc(N3CCCCC3)nc3ccccc23)cc1` [Compound 33, N-Phenethyl-2-(piperidin-1-yl)quinazolin-4-amine], for which the MIC in test [1] is 10 to 50 µM (≈ 3.32 to 16.6 µg/mL); in test [2], less than 10 µM.

With `Cn1ncc2c(NCc3ccccc3)nc(N3CCCC3)nc21` [Compound 20, N-Benzyl-1-methyl-6-(pyrrolidin-1-yl)-1H-pyrazolo[3,4-d]pyrimidin-4-amine], in test [1], the “LORA (TB growth inhibition, MIC)” value was “−”. Also, the MIC in test [2] lay within 50 to 128 µM (≈ 15.4 to 39.5 µg/mL).

For the molecule `c1ccc2c(NC3C4CC5CC(C4)CC3C5)nc(N3CCOCC3)nc2c1` (stereo not shown) [Compound 19, 2-Morpholino-N-(1-[2′-adamantyl])quinazolin-4-amine], the “LORA (TB growth inhibition, MIC)” value in test [1] is on record as “+++ (10-50 μM=+++)”. Moreover, the “MABA (TB growth inhibition, colourimetric assay)” value in test [2] was “+++ (10-50 μM=+++)”.

`c1ccc(CNc2nc(N3CCOCC3)nc3ccccc23)cc1` [Compound 5, N-Benzyl-2-morpholinoquinazolin-4-amine]: the MIC in test [1] and in test [2] was 50 to 128 µM (≈ 16 to 41 µg/mL) each time.

On to `FC(F)(F)c1ccc(CNc2nc(N3CCc4ccccc4C3)nc3ccccc23)cc1` [Compound 114, 2-(3,4-Dihydroisoquinolin-2(1H)-yl)-N-(4-(trifluoromethyl)benzyl)quinazolin-4-amine hydrochloride], for which the MIC in test [1] and in test [2] was less than 10 µM each time.

In the case of `c1ccc2c(NC3C4CC5CC(C4)CC3C5)nc(N3CCCCC3)nc2c1` (stereo not shown) [Compound 60, N-(2′-Adamantyl)-2-(piperidin-1-yl)quinazolin-4-amine], the “LORA (TB growth inhibition, MIC)” value in test [1] is reported as “++++ (key: TB growth<10 μM=++++; 10-50 μM=+++; 50-128 μM=++; >128 μM but inhibited=+; no inhibition=−)”. Further, the “MABA (TB growth inhibition, colourimetric assay)” value in test [2] is given as “+++ (10-50 μM=+++)”.

`C[C@@H](Nc1nc(N2CCCCC2)nc2ccccc12)c1ccc(C(F)(F)F)cc1` [Compound 117, (R)-2-(Piperidin-1-yl)-N-(1-(4-(trifluoromethyl)phenyl)ethyl)quinazolin-4-amine]: the MIC in test [1] and in test [2] was less than 10 µM throughout.

Take `CC(Nc1nc(N2CCN(S(=O)(=O)c3ccccc3)CC2)nc2ccccc12)c1ccccc1` (stereo not shown) [Compound 15, N-(1-Phenylethyl)-2-(4-(phenylsulfonyl)piperazin-1-yl)quinazolin-4-amine]: the “LORA (TB growth inhibition, MIC)” value in test [1] is reported as “−”. In addition, the MIC in test [2] was 50 to 128 µM (≈ 23.7 to 60.6 µg/mL).

As to `CC(Nc1nc(N2CCCC2)nc2ccccc12)c1ccccc1` (stereo not shown) [Compound 14, N-(1-Phenylethyl)-2-(pyrrolidin-1-yl)quinazolin-4-amine], the MIC in test [1] and in test [2] was 10 to 50 µM (≈ 3.18 to 15.9 µg/mL) throughout.

Turning to `c1ccc(CNc2nc(N3Cc4ccccc4C3)nc3ccccc23)cc1` [Compound 130, N-Benzyl-2-(isoindolin-2-yl)quinazolin-4-amine], the “LORA (TB growth inhibition, MIC)” value in test [1] was “−”. The MIC in test [2] is less than 10 µM.

As to `FC(F)(F)c1ccc(N2CCN(c3nc(NCc4ccccc4)c4ccccc4n3)CC2)cc1` [Compound 135, N-Benzyl-2-(4-(4-(trifluoromethyl)phenyl)piperazin-1-yl)quinazolin-4-amine hydrochloride], the MIC is 10 to 50 µM in test [1] and less than 10 µM in test [2].

These data come from patent US20100317607A1, “USE OF COMPOUNDS FOR PREPARING ANTI-TUBERCULOSIS AGENTS” (INFECTIOUS DISEASE RESEARCH INSTITUTE, priority 2007, published 2010).
